From patent US4451485A, “Treatment of cardio-vascular diseases with 3-(2,2,2-trimethylhydrazinium) propionate dihydrate” (Institu Organicheskogo Sinteza Akademii Nauk Latviiskoi SSR, priority 1981, dated 1984)
“And” between values parts separate entries of the source, which are not always exact repeats. Equal values may be shown once.

Columns and labels:
[1] = Aconitine model of arrhythmia in white rats; format: in vivo
Description: (§1) For the comparison of preparations, as the criterion of the range of therapeutic effect, there was used the ratio of the half-lethal dose to the half-effective dose (LD50 /ED50) which was referred to as the antiarrhythmic index. […] The comparative study of the antiarrhythmic activity of pharmaceutical preparations using an acotine model of arrhythmia was effected in experiments on white rats weighing 190-240 g. The test preparations were administered intraperitoneally 10-40 minutes before administration of aconitine.

[2] = Storage stability of pharmaceutical preparations; format: physicochemical
[3] = Threshold of electric fibrillation of auricles and ventricles in cats; format: in vivo
Description: Furthermore, the preparation according to the present invention was tested for specific antiarrhythmic and antianginal effects. […] The effect of the novel pharmaceutical composition according to the present invention was studied on cats weighing 2.9-3.6 kg. The preparation was used as a 10% aqueous solution containing 3-(2,2,2-trimethylhydrazinium)propionate for the determination of the threshold value of electric fibrillation of auricles and ventricles. Under artificial respiration after opening of the thorax and pericardium, needle-like electrodes were applied to the right auricula and apex of the left ventricle. The irritation was effected by square pulses of 1 m.s., 15 st/s.
as §1

[4] = test system: salmoneallae; assay: Mutagenous activity on salmonellae; settings: dihydrate
[5] = Efficiency in extrasystolic arrhythmia in patients, intravenous; format: in vivo; settings: 1 ml of a 40% solution intravenous; 7 patients
Description: The antianginal and antiarrhythmic effects of the preparation according to the present invention were evaluated with the use of the injection pharmaceutical form of the preparation administered intravenously in an amount of 0.2 to 0.4 g based on the active ingredient.
The preparation efficiency in the case of extrasystolic arrhythmia was studied on 7 patients.
The intravenous administration of the preparation (1 ml of a 40% solution) arrested the rhythm disorder for 5-20 minutes.

C[N+](C)(C)NCCC(=O)[O-] [3-(2,2,2-trimethylhydrazinium)propionate]
ED50 ([1]; Rattus norvegicus, ip, read-out: ED50, aconitine arrhythmia in rats): 12.5 ± 2.5 mg/kg | Antiarrhythmic index LD50/ED50, aconitine arrhythmia in rats ([1]; rat, in vivo): 354 | Stability in storage ([2]; +5° C.): stable in storage at a temperature of +5 °C for at least two years | Stability of pharmaceutical forms for peroral administration ([2]; room temperature): stable for two years at room temperature | Increase of the threshold of electrical fibrillation of auricle and ventricles ([3]; 6 to 15 mg/kg intravenous): 40-55% | ED50 ([3]; Felis catus, iv, read-out: ED50, electric irritation of cat's heart): 10 ± 3.5 mg/kg | Antiarrhythmic index LD50/ED50, electric irritation of cat's heart ([3]; intravenous): 443 and 433 | Mutagenous activity [4]: does not have mutagenous activity | Duration of arrest of the rhythm disorder [5]: 5 to 20 min
